From ChEMBL document CHEMBL1201862, “PubChem BioAssay data set” (2004)
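Exposure lasted 48 hours, with cells grown in 96-well plates and compounds tested at five concentrations. GI50 marks 50% less growth.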 Activity calls are given as the source filed them. Rule as the data show it: active = GI50 up to about 1.1 µM and inactive = higher.

What was measured:
Test in all cases: growth of human tumour cells (NCI), 48 h
[1] = test system: A498
[2] = test system: ACHN
[3] = test system: BT-549
[4] = test system: CAKI-1
[5] = test system: CCRF-CEM
[6] = test system: IGROV-1
[7] = test system: K562
[8] = test system: KM12
[9] = test system: M14
[10] = test system: MDA-N
[11] = test system: NCI-H226
[12] = test system: NCI/ADR-RES
[13] = test system: RPMI-8226
[14] = test system: SK-MEL-28
[15] = test system: SK-MEL-2
[16] = test system: SK-MEL-5
[17] = test system: SNB-19
[18] = test system: T47D
[19] = test system: U-251
[20] = test system: UO-31

Structure (SMILES) | GI50 [1] | GI50 [2] | GI50 [3] | GI50 [4] | GI50 [5] | GI50 [6] | GI50 [7] | GI50 [8] | GI50 [9] | GI50 [10] | GI50 [11] | GI50 [12] | GI50 [13] | GI50 [14] | GI50 [15] | GI50 [16] | GI50 [17] | GI50 [18] | GI50 [19] | GI50 [20]
COC(=O)/C=C1/OC(c2ccc(OC)cc2)=C(Cl)C1=O | 22.5 µM (inactive) | 17.3 µM (inactive) | 13.3 µM (inactive) | 13.5 µM (inactive) | 4.78 µM (inactive) | 16.9 µM (inactive) | 2.73 µM (inactive) | 18.1 µM (inactive) | 16.9 µM (inactive) | 16.7 µM (inactive) | 21.9 µM (inactive) | 25.8 µM (inactive) | 3.95 µM (inactive) | 17.3 µM (inactive) | 17.2 µM (inactive) | 14 µM (inactive) | 23 µM (inactive) | 15.3 µM (inactive) | 9.1 µM (inactive) | 21 µM (inactive)
CC(C)=CCC/C(C)=C/CC/C(C)=C/CCN(C)CCO | 14.2 µM (inactive) | 10.8 µM (inactive) | 10.8 µM (inactive) | 6.32 µM (inactive) | 2.39 µM (inactive) | 2.94 µM (inactive) | 1.54 µM (inactive) | 2.75 µM (inactive) | 1.95 µM (inactive) | 3.75 µM (inactive) | 14.9 µM (inactive) | 12.4 µM (inactive) | 2.96 µM (inactive) | 8.45 µM (inactive) | 13.2 µM (inactive) | 1.89 µM (inactive) | 8.07 µM (inactive) | 2.78 µM (inactive) | 3.3 µM (inactive) | 12.1 µM (inactive)
O=C1CSC2(CC(/C=C/C=C/c3ccccc3)=NN2c2cccc(S(=O)(=O)O)c2)N1c1nc2ccccc2s1 (stereo not given) | 26.4 µM (inactive) | 40.3 µM (inactive) | 51.5 µM (inactive) | 54.5 µM (inactive) | 20.8 µM (inactive) | 33.7 µM (inactive) | 29 µM (inactive) | 45.8 µM (inactive) | 60.4 µM (inactive) | 52 µM (inactive) | 24.8 µM (inactive) | 51.1 µM (inactive) | 21.2 µM (inactive) | > 100 µM (inactive) | 26 µM (inactive) | 35.2 µM (inactive) | 36.4 µM (inactive) | 23.4 µM (inactive) | 24 µM (inactive) | 45.3 µM (inactive)
CN(C)CCNc1ccc2nnn3c4ccc(O)cc4c(=O)c1c23 | 3.71 µM (inactive) | 2.76 µM (inactive) | 15.2 µM (inactive) | 3.13 µM (inactive) | 1.11 µM (active) | 1.96 µM (inactive) | 1.61 µM (inactive) | 2.32 µM (inactive) | 7.59 µM (inactive) | 1.86 µM (inactive) | 6.31 µM (inactive) | 1.81 µM (inactive) | 2.06 µM (inactive) | 10.9 µM (inactive) | 9.79 µM (inactive) | 2.53 µM (inactive) | 7.89 µM (inactive) | 11.1 µM (inactive) | 2.1 µM (inactive) | 2.22 µM (inactive)
CC(C)=CCC[C@](C)(O)[C@H]1CC[C@]2(C)[C@@H]1[C@H](O)C[C@@H]1[C@@]3(C)CC[C@H](O[C@@H]4O[C@H](CO)[C@@H](O)[C@H](O)[C@H]4O)C(C)(C)[C@@H]3CC[C@]12C [GINSENOSIDE RH2] | 19.8 µM (inactive) | 17.8 µM (inactive) | 18 µM (inactive) | 18.7 µM (inactive) | 23.5 µM (inactive) | 16.3 µM (inactive) | 19.8 µM (inactive) | 17.6 µM (inactive) | 27.2 µM (inactive) | 19.8 µM (inactive) | 17.6 µM (inactive) | 25.1 µM (inactive) | 19.1 µM (inactive) | 19.9 µM (inactive) | 15.9 µM (inactive) | 18.1 µM (inactive) | 20 µM (inactive) | 18.2 µM (inactive) | 17.7 µM (inactive) | 17.4 µM (inactive)
CN(C)/N=N/c1ccc2[nH]c(=O)[nH]c2c1 | > 100 µM (inactive) | > 100 µM (inactive) | > 100 µM (inactive) | > 100 µM (inactive) | 62.2 µM (inactive) | > 100 µM (inactive) | > 100 µM (inactive) | > 100 µM (inactive) | > 100 µM (inactive) | > 100 µM (inactive) | > 100 µM (inactive) | > 100 µM (inactive) | > 100 µM (inactive) | > 100 µM (inactive) | > 100 µM (inactive) | > 100 µM (inactive) | > 100 µM (inactive) | > 100 µM (inactive) | > 100 µM (inactive) | > 100 µM (inactive)
C(#CC1(Nc2ccccc2)CCN(Cc2ccccc2)CC1)C1(Nc2ccccc2)CCN(Cc2ccccc2)CC1 | 30.1 µM (inactive) | 39.4 µM (inactive) | 34.6 µM (inactive) | 24.3 µM (inactive) | 6.27 µM (inactive) | 22.9 µM (inactive) | 1.62 µM (inactive) | 35.3 µM (inactive) | 11.2 µM (inactive) | 14.5 µM (inactive) | 26.7 µM (inactive) | 34.7 µM (inactive) | 1.18 µM (inactive) | 4.8 µM (inactive) | 10.5 µM (inactive) | 3.88 µM (inactive) | 23.8 µM (inactive) | 9.31 µM (inactive) | 19.9 µM (inactive) | 15.5 µM (inactive)
O=S(=O)(c1ccc2ccccc2c1)N1CCN(S(=O)(=O)c2ccc3ccccc3c2)CC1 | > 100 µM (inactive) | > 100 µM (inactive) | > 100 µM (inactive) | > 100 µM (inactive) | > 100 µM (inactive) | > 100 µM (inactive) | > 100 µM (inactive) | > 100 µM (inactive) | > 100 µM (inactive) | > 100 µM (inactive) | > 100 µM (inactive) | > 100 µM (inactive) | > 100 µM (inactive) | > 100 µM (inactive) | > 100 µM (inactive) | > 100 µM (inactive) | 69.7 µM (inactive) | > 100 µM (inactive) | > 100 µM (inactive) | > 100 µM (inactive)
OCCO[P+]1(OCCO)n2c3ccc2C(c2ccccc2)=C2C=CC(=N2)C(c2ccccc2)=c2ccc(n21)=C(c1ccccc1)C1=NC(=C3c2ccccc2)C=C1 | 0.349 µM (active) | 0.251 µM (active) | 0.0118 µM (active) | 0.783 µM (active) | 0.0158 µM (active) | 0.022 µM (active) | 0.0109 µM (active) | 0.0247 µM (active) | 0.163 µM (active) | 0.0344 µM (active) | 0.0579 µM (active) | 3.28 µM (inactive) | < 0.01 µM (active) | 0.0408 µM (active) | 0.0481 µM (active) | 0.0296 µM (active) | 0.0133 µM (active) | 0.0251 µM (active) | 0.0152 µM (active) | 1.14 µM (inactive)
